The values that follow come from patent publication EP4813383A1, “USE OF TAFAMIDIS AND PHARMACEUTICALLY ACCEPTABLE SALT THEREOF IN PREVENTION, ALLEVIATION, OR TREATMENT OF DISEASES ASSOCIATED WITH HIF-2a” (Huaya Jiyuan (Shenzhen) Pharmaceutical Co., Ltd., priority 2024, dated 2025).

The target in this experiment is T1, HIF-2α (Homo sapiens, UniProt Q99814).
T1 construct: 786-O is a renal carcinoma cell line that predominantly expresses HIF-2α and lacks functional HIF-1α; endogenous in cells; host or cells: 786-O cells stably carrying an HRE-driven luciferase reporter
The experiment can be described thus: Luciferase reporter gene assay (HRE-driven luciferase in stably transfected 786-O cells). It counts as cell-based. An excerpt:
Experimental principles: 786-O is a renal carcinoma cell line that predominantly expresses HIF-2α and lacks functional HIF-1α. This characteristic makes 786-O cells an ideal model for studying HIF-2α transcriptional activity and related signaling pathways. In the luciferase reporter gene assay, a 786-O monoclonal cell line that stably expresses hypoxia response element (HRE)-driven luciferase (Luc) activity is obtained through puromycin selection. The HIF-2α agonist promotes dimerization of HIF-2α and HIF-β, and activates an HRE promoter. By measuring fluorescence intensity, luciferase activity can be determined, thereby assessing the ability of the HIF-2α agonist to promote transcription.
Experimental method: A total of 6000 stably transfected 786-O cells stably containing HRE and Luc sequences are seeded in each well of a 96-well plate, and 100 µL of RPMI-1640 culture medium containing 10% fetal bovine serum is added to each well. After 24 hours, a compound at a corresponding concentration is added to each well. A blank group is set as a control. Only a DMSO solvent is added in the well of the blank group. For initial compound screening, both tafamidis and tafamidis meglumine are tested at two concentrations: 2 µM and 20 µM. For concentration-gradient determination, each concentration is tested in triplicate. After co-incubation for 24 hours, the culture medium is discarded, and 20 µL of firefly luciferase reporter gene cell lysis buffer (RG126M, Beyotime) is added to each well. The 96-well plate is shaken on a microplate shaker for 10 minutes. After shaking, 10 µL of lysate is transferred into a white opaque plate, and then 10 µL of Steady-Lumi™ firefly luciferase assay reagent (RG058S, Beyotime) is added to each well. Finally, luminescence is measured using a microplate reader (Agilent Synergy Neo2). E20 represents the effect of the compound at a 20 µM concentration, and is calculated as: E20 = fluorescence value of the 20 µM well ÷ fluorescence value of the blank control × 100%. E2 represents the effect of the compound at a 2 µM concentration, and is calculated as: E2 = fluorescence value of the 2 µM well ÷ fluorescence value of the blank control × 100%. EC50 is the compound concentration at which the agonistic efficacy is increased by 50% relative to the blank control. The agonistic efficacy of a compound is determined by calculating the concentration (EC50) required to achieve a 50% increase in the fluorescence activity relative to the blank control and a maximum activation percentage (Emax). The maximum activation percentage (Emax) of an agonist refers to a ratio, expressed as a percentage, of the fluorescence value corresponding to the maximal effect (observed maximal response) induced when the agonist concentration reaches receptor-binding saturation in a particular receptor system, to the fluorescence value of the receptor system in the absence of agonist. In this experiment, Vyndaqel is directly used in place of tafamidis meglumine.

Counter-ions that a name gives are not always drawn.

T1 sequence (Q99814 whole entry): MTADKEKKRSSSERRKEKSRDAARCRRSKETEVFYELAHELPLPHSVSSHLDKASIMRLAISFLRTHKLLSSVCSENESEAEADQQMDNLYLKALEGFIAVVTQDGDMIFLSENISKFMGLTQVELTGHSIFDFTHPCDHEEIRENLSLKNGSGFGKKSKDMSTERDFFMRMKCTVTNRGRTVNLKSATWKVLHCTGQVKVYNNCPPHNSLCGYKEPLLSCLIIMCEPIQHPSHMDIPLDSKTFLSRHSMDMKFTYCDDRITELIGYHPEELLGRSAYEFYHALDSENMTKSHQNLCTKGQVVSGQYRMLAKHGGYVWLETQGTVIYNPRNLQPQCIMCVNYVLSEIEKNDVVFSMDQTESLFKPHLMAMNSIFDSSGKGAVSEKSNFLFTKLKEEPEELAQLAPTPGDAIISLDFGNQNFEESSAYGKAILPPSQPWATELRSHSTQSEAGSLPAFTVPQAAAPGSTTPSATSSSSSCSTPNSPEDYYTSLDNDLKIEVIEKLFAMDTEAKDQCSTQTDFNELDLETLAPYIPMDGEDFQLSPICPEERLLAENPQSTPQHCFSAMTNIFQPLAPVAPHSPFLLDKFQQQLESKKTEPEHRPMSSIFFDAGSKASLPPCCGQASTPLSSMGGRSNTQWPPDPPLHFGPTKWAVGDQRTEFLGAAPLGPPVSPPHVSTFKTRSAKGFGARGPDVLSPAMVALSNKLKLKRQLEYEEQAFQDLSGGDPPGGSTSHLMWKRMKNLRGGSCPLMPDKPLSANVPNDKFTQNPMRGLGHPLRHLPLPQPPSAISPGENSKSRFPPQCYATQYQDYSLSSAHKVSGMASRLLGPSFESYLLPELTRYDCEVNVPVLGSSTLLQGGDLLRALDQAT
T1 sequence (P27540 whole entry partner): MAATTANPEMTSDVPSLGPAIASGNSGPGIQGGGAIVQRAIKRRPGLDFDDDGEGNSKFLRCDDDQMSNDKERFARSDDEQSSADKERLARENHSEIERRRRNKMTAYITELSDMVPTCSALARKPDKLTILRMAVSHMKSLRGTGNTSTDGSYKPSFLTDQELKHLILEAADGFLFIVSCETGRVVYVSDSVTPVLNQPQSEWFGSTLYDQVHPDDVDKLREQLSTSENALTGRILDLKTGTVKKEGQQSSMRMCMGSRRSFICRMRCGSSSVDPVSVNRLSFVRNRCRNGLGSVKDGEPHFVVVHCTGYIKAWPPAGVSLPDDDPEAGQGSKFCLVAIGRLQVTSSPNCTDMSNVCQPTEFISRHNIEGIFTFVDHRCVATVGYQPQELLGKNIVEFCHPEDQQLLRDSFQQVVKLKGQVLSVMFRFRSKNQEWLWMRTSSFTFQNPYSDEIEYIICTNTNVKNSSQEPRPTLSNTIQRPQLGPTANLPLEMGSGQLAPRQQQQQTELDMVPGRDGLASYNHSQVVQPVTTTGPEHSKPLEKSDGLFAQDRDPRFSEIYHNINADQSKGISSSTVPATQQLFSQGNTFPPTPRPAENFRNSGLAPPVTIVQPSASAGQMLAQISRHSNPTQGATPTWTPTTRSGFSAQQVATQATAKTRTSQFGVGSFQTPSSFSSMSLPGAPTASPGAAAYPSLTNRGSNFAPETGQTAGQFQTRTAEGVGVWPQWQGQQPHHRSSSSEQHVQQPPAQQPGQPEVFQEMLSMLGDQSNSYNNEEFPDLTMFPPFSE

Take `O=C(O)c1ccc2nc(-c3cc(Cl)cc(Cl)c3)oc2c1` [tafamidis meglumine, 1-deoxy-1-(methylamino)-D-glucitol salt of 2-(3,5-dichlorophenyl)-1,3-benzoxazole-6-carboxylic acid]: the “agonistic efficacy at a 2 µM concentration (E2)” value (2 µM, 24 hours co-incubation, fluorescence value as % of blank control (DMSO)) was 122%. The “agonistic efficacy at a 20 µM concentration (E20)” value (20 µM, 24 hours co-incubation, fluorescence value as % of blank control (DMSO)) stood at 223%. For the same molecule, the EC50 (EC50, concentration required for a 50% increase in fluorescence activity relative to the blank control, 24 hours) amounted to 970 nM. For the same molecule, the “Emax (maximum activation percentage)” value (maximal response as % of fluorescence without agonist) is listed as 228%.
